Legend:
Assay in all cases: Greenhouse bioassay for resistance to ALS-inhibiting herbicides (dry matter, visual injury)
Format in all cases: in vivo, Shattercane (Sorghum bicolor subsp. X drummondii)
[1] = system: shattercane biotype P8-30 (Mutant C); conditions: for resistance of the biotype to the herbicide: biotype P8-30 (Mutant C), relative to the wild-type, dry matter and visual ratings; for growth reduction: biotype P8-30, growth in the three weeks after herbicide application
Description: (§1) The bioassay experiment was conducted in a greenhouse on the East Campus of the University of Nebraska-Lincoln, in Lincoln, Nebr. The experimental design was a randomized complete block. Shattercane seed was planted in 0.9 L square plastic pots in Miracle-Gro® Moisture Control® Potting Mix (The Scotts Company LLC, Marysville, Ohio). The photoperiod was 15/9 light/dark with supplemental light provided by sodium halide lamps. Greenhouse temperatures were maintained at 24±2 C (day) and 19±2 C (night). Shattercane was thinned to 1 plant per pot when it reached the 2 leaf stage. Herbicide treatments (Table 1 in Appendix I) were applied when the shattercane reached the V4 growth stage and was approximately 12 cm tall. Individual plants ranged from growth stage V3 to V5, and in height from 7 to 19 cm. At least one tiller had formed on most plants by the time of application. Herbicides were applied using an 8001 even flat fan nozzle at 207 kPa in a single-tip track sprayer located in the greenhouse facility. The application rate was 187 l/ha, and treatment solutions were prepared in distilled water. Visual injury ratings were made 7, 14 and 21 days after treatment on a scale of 0 to 100, where 0 represents no injury and 100 represents plant death. At 21 DAT, plants were harvested at the soil surface, dried for 48 h at 70 C, and weighed to determine dry matter. Dry matter data for each experimental unit was divided by the average dry matter of the untreated control plants of that biotype and multiplied by 100 to determine relative percent biomass to the untreated control. Dry matter data for each experimental unit was also divided by the average dry matter data of the glyphosate-treated plants of that biotype to determine growth in the three weeks after herbicide application. Data were subjected to ANOVA using Proc GLM of SAS 9.1 (SAS Institute Inc., Cary, N.C.). The Run by Herbicide by Population interaction was significant for each variable, so runs were analyzed separately. The Herbicide by Population interaction was also significant for each run and each variable, so data were analyzed by herbicide to describe differences among the populations. Treatment means were separated using Duncan's Multiple Range test.

[2] = system: shattercane biotype P2-205 (Mutant A); conditions: dry matter and visual ratings
Description: as §1

[3] = system: shattercane biotype P9-102 (Mutant B); conditions: dry matter and visual ratings
Description: as §1

[4] = system: shattercane biotype 5-4Farm (Mutant D); conditions: plants harvested 21 DAT
Description: as §1

wild type shattercane = conditions: wild type biotype, plants harvested 21 DAT
Description: as §1

| SMILES | resistance of the biotype to the herbicide [1] | resistance of the biotype to the herbicide [2] | resistance of the biotype to the herbicide [3] | also measured |
| --- | --- | --- | --- | --- |
| CC(C)C1(C)N=C(c2nc3ccccc3cc2C(=O)O)NC1=O (stereo not drawn) [Imazaquin] | resistance | – | – | – |
| CCc1cnc(C2=NC(C)(C(C)C)C(=O)N2)c(C(=O)O)c1 (stereo not drawn) [Imazethapyr] | resistance | – | – | – |
| COc1cc(OC)nc(Oc2cccc(Oc3nc(OC)cc(OC)n3)c2C(=O)O)n1 [bispyribac] | partial resistance | – | – | resistance of the biotype to the herbicide ([1]; listed as Bispyribac): resistance; growth reduction [1]: approximately 65% |
| COc1nc(C)nc(NC(=O)NS(=O)(=O)c2ccccc2Cl)n1 [chlorsulfuron] | resistance | resistant | resistance | resistance of the biotype to the herbicide ([2]; listed as Chlorsulfuron): resistance |
| COc1cc(OC)nc(NC(=O)NS(=O)(=O)c2cc(NC=O)ccc2C(=O)N(C)C)n1 [foramsulfuron] | resistance | partially resistant | resistant | resistance of the biotype to the herbicide ([2]; listed as Foramsulfuron): resistance; resistance of the biotype to the herbicide ([3]; listed as Foramsulfuron): resistance |
| COCc1cnc(C2=NC(C)(C(C)C)C(=O)N2)c(C(=O)O)c1 (stereo not drawn) [imazamox] | resistance | partially resistant | – | resistance of the biotype to the herbicide ([2]; listed as Imazamox): resistance |
| COc1cc(OC)nc(NC(=O)NS(=O)(=O)c2ncccc2C(=O)N(C)C)n1 [nicosulfuron] | resistance | – | resistant | – |
| COc1cnc(OC)n2nc(NS(=O)(=O)c3c(OCC(F)F)cccc3C(F)(F)F)nc12 [penoxsulam] | – | – | – | effect on dry matter [4]: did not reduce dry matter; effect on dry matter (wild type shattercane): did not reduce dry matter |
| O=C(Nc1nc(OC(F)F)cc(OC(F)F)n1)NS(=O)(=O)c1ccccc1C(=O)O [primisulfuron] | resistance | partially resistant | partially resistant | resistance of the biotype to the herbicide ([2]; listed as Primisulfuron): resistance; resistance of the biotype to the herbicide ([3]; listed as Primisulfuron): resistance |
| CCCOc1nn(C(=O)[N-]S(=O)(=O)c2ccccc2C(=O)OC)c(=O)n1C.[Na+] [propoxycarbazone] | resistance | resistant | resistant | resistance of the biotype to the herbicide ([2]; listed as Propoxycarbazone): resistance; resistance of the biotype to the herbicide ([3]; listed as Propoxycarbazone): resistance |
| CCS(=O)(=O)c1cccnc1S(=O)(=O)NC(=O)Nc1nc(OC)cc(OC)n1 [rimsulfuron] | partial resistance | – | – | resistance of the biotype to the herbicide ([1]; listed as Rimsulfuron): resistance; growth reduction [1]: ~84% |
| COc1nn(C(=O)NS(=O)(=O)c2c(C(=O)O)csc2C)c(=O)n1C [thiencarbazone] | resistance | partially resistant | partially resistant | resistance of the biotype to the herbicide ([2]; listed as Thiencarbazone): resistance; resistance of the biotype to the herbicide ([3]; listed as Thiencarbazone): resistance |

Source: patent US9365862B1, “Herbicide resistant sorghum mutants” (NUtech Ventures, priority 2011, dated 2016)
